# Measurements taken from patent US8952024B2, “Herbicidal pyrimidone derivatives” (E I du Pont de Nemours and Company, priority 2009, dated 2015).
# Assays:
# Assay type in all cases: in vivo
# [1] = test system: Surinam grass (Brachiaria decumbens); test: Test B pre-/postemergence plant response; settings: for Surinam Grass plant response rating (0 to 100 scale): 62 g ai/ha, 0 is no effect, 13 to 15 days
# Procedure, shortened: (§1)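 Greenhouse herbicide screen. Pre- and postemergence (1- to 4-leaf) spray of compound in solvent/surfactant mixture; loam–sand soil for pre, peat/vermiculite medium for post. Visual control rating 0–100 at 13 to 15 days after treatment.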
# [2] = test system: bermudagrass (Cynodon dactylon); test: Test B pre-/postemergence plant response; settings: for Bermudagrass plant response rating (0 to 100 scale): 62 g ai/ha, 0 is no effect, 13 to 15 days
# Procedure, shortened: as §1
# [3] = test system: downy bromegrass (Bromus tectorum); test: Test B pre-/postemergence plant response; settings: for Bromegrass, Downy plant response rating (0 to 100 scale): 62 g ai/ha, 0 is no effect, 13 to 15 days
# Procedure, shortened: as §1
# [4] = test system: lambsquarters (Chenopodium album); test: Test B pre-/postemergence plant response; settings: for Lambsquarters plant response rating (0 to 100 scale): 62 g ai/ha, 0 is no effect, 13 to 15 days
# Procedure, shortened: as §1
# [5] = test system: pigweed (Amaranthus retroflexus); test: Test B pre-/postemergence plant response; settings: for Pigweed plant response rating (0 to 100 scale): 62 g ai/ha, 0 is no effect, 13 to 15 days
# Procedure, shortened: as §1
# [6] = test system: wheat (Triticum aestivum); test: Test B pre-/postemergence plant response; settings: for Wheat plant response rating (0 to 100 scale): 62 g ai/ha, 0 is no effect, 13 to 15 days
# Procedure, shortened: as §1
# [7] = test system: woolly cupgrass (Eriochloa villosa); test: Test B pre-/postemergence plant response; settings: for Cupgrass, Woolly plant response rating (0 to 100 scale): 62 g ai/ha, 0 is no effect, 13 to 15 days
# Procedure, shortened: as §1
# [8] = test system: yellow nutsedge (Cyperus esculentus); test: Test B pre-/postemergence plant response; settings: for Nutsedge, Yellow plant response rating (0 to 100 scale): 62 g ai/ha, 0 is no effect, 13 to 15 days
# Procedure, shortened: as §1
# [9] = test system: barnyardgrass (Echinochloa crus-galli); test: Test B flooded paddy test; settings: for Plant response rating, Flood, Barnyardgrass: 250 g ai/ha, flooded paddy test, visual rating on 0 to 100 scale (0 no effect, 100 complete control) after 13 to 15 days; for Plant response rating, Barnyardgrass: Flood (flooded paddy test), 13 to 15 days; for Barnyardgrass plant response rating: Flood, 31 g ai/ha, scale 0 to 100 (0 no effect, 100 complete control)
# Procedure, shortened: (§2)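 Seedlings reaching 2 leaves are flooded 3 cm deep; test material is delivered to that water, which stays at the same depth. Plants remain in a greenhouse 13–15 days and are then scored by eye versus controls from 0 to 100.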
# [10] = test system: ducksalad (Heteranthera limosa); test: Test B flooded paddy test; settings: for Plant response rating, Flood, Ducksalad: 250 g ai/ha, flooded paddy test, visual rating on 0 to 100 scale (0 no effect, 100 complete control) after 13 to 15 days; for Plant response rating, Ducksalad: Flood (flooded paddy test), 13 to 15 days; for Ducksalad plant response rating: Flood, 31 g ai/ha, scale 0 to 100 (0 no effect, 100 complete control)
# Procedure, shortened: as §2
# [11] = test system: rice (Oryza sativa); test: Test B flooded paddy test; settings: for Plant response rating, Flood, Rice: 250 g ai/ha, flooded paddy test, visual rating on 0 to 100 scale (0 no effect, 100 complete control) after 13 to 15 days; for Plant response rating, Rice: Flood (flooded paddy test), 13 to 15 days; for Rice plant response rating: Flood, 31 g ai/ha, scale 0 to 100 (0 no effect, 100 complete control)
# Procedure, shortened: as §2
# [12] = test system: umbrella sedge (Cyperus difformis); test: Test B flooded paddy test; settings: for Plant response rating, Flood, Sedge, Umbrella: 250 g ai/ha, flooded paddy test, visual rating on 0 to 100 scale (0 no effect, 100 complete control) after 13 to 15 days; for Plant response rating, Sedge, Umbrella: Flood (flooded paddy test), 13 to 15 days; for Sedge, Umbrella plant response rating: Flood, 31 g ai/ha, scale 0 to 100 (0 no effect, 100 complete control)
# Procedure, shortened: as §2
# [13] = 31 g ai/ha, postemergence, scale 0 to 100, 0 is no effect, 100 is complete control
# [14] = postemergence, 100 is complete control
# [15] = Postemergence, 125 g ai/ha, visual rating after 13 to 15 days, scale 0 (no effect) to 100 (complete control)
# [16] = Postemergence, 250 g ai/ha, scale 0 to 100 (0 no effect, 100 complete control)
# [17] = 62 g ai/ha, scale of 0 to 100 where 0 is no effect and 100 is complete control
# [18] = 125 g ai/ha, scale 0 to 100, 0 is no effect, 100 is complete control
structure (smiles),measurement,setting,value
Cc1ccccc1-c1ncc(C(=O)C2=C(O)CCCC2=O)c(=O)n1-c1ccccc1 [Compound 82],"Plant response rating, Surinam Grass",[1]; [13],65
same,Surinam Grass plant response rating (0 to 100 scale),[1]; [14],65
same,"Plant response rating, Surinam Grass",[1]; [15],75
same,"Plant response rating, Surinam Grass",[1]; [16],80
same,"Plant response rating, Bermudagrass",[2]; [13],80
same,Bermudagrass plant response rating (0 to 100 scale),[2]; [14],85
same,"Plant response rating, Bermudagrass",[2]; [15],85
same,"Plant response rating, Bermudagrass",[2]; [16],95
same,"Plant response rating, Bromegrass, Downy",[3]; [13],0
same,"Bromegrass, Downy plant response rating (0 to 100 scale)",[3]; [14],0
same,"Plant response rating, Bromegrass, Downy",[3]; [15],5
same,"Plant response rating, Bromegrass, Downy",[3]; [16],30
same,"Plant response rating, Lambsquarters",[4]; [13],80
same,Lambsquarters plant response rating (0 to 100 scale),[4]; [14],95
same,"Plant response rating, Lambsquarters",[4]; [15],100
same,"Plant response rating, Lambsquarters",[4]; [16],100
same,"Plant response rating, Pigweed",[5]; [13],75
same,Pigweed plant response rating (0 to 100 scale),[5]; [14],98
same,"Plant response rating, Pigweed",[5]; [15],100
same,"Plant response rating, Pigweed",[5]; [16],100
same,"Plant response rating, Wheat",[6]; [13],0
same,Wheat plant response rating (0 to 100 scale),[6]; [14],0
same,"Plant response rating, Wheat",[6]; [15],0
same,"Plant response rating, Wheat",[6]; [16],5
same,"Plant response rating, Cupgrass, Woolly",[7]; [13],55
same,"Cupgrass, Woolly plant response rating (0 to 100 scale)",[7]; [14],55
same,"Plant response rating, Cupgrass, Woolly",[7]; [15],65
same,"Plant response rating, Cupgrass, Woolly",[7]; [16],75
same,"Plant response rating, Nutsedge, Yellow",[8]; [13],10
same,"Nutsedge, Yellow plant response rating (0 to 100 scale)",[8]; [14],15
same,"Plant response rating, Nutsedge, Yellow",[8]; [15],45
same,"Plant response rating, Nutsedge, Yellow",[8]; [16],55
same,"Plant response rating, Flood, Barnyardgrass",[9],20
same,"Plant response rating, Barnyardgrass",[9]; [17],0
same,"Plant response rating, Barnyardgrass",[9]; [18],15
same,Barnyardgrass plant response rating,[9],0
same,"Plant response rating, Flood, Ducksalad",[10],20
same,"Plant response rating, Ducksalad",[10]; [17],0
same,"Plant response rating, Ducksalad",[10]; [18],0
same,Ducksalad plant response rating,[10],0
same,"Plant response rating, Flood, Rice",[11],20
same,"Plant response rating, Rice",[11]; [17],0
same,"Plant response rating, Rice",[11]; [18],15
same,Rice plant response rating,[11],0
same,"Plant response rating, Flood, Sedge, Umbrella",[12],50
same,"Plant response rating, Sedge, Umbrella",[12]; [17],0
same,"Plant response rating, Sedge, Umbrella",[12]; [18],40
same,"Sedge, Umbrella plant response rating",[12],0
CC(C)CC(=O)OC1=C(C(=O)c2cnc(-c3ccccc3)n(-c3ccccc3)c2=O)C(=O)CCC1 [Compound 83],"Plant response rating, Surinam Grass",[1]; [13],75
same,Surinam Grass plant response rating (0 to 100 scale),[1]; [14],75
same,"Plant response rating, Surinam Grass",[1]; [16],90
same,"Plant response rating, Bermudagrass",[2]; [13],75
same,Bermudagrass plant response rating (0 to 100 scale),[2]; [14],75
same,"Plant response rating, Bermudagrass",[2]; [15],85
same,"Plant response rating, Bermudagrass",[2]; [16],90
same,"Plant response rating, Bromegrass, Downy",[3]; [13],40
same,"Bromegrass, Downy plant response rating (0 to 100 scale)",[3]; [14],45
same,"Plant response rating, Bromegrass, Downy",[3]; [15],45
same,"Plant response rating, Bromegrass, Downy",[3]; [16],60
same,"Plant response rating, Lambsquarters",[4]; [13],95
same,Lambsquarters plant response rating (0 to 100 scale),[4]; [14],98
same,"Plant response rating, Lambsquarters",[4]; [16],100
same,"Plant response rating, Pigweed",[5]; [13],80
same,Pigweed plant response rating (0 to 100 scale),[5]; [14],90
same,"Plant response rating, Pigweed",[5]; [16],100
same,"Plant response rating, Wheat",[6]; [13],0
same,Wheat plant response rating (0 to 100 scale),[6]; [14],0
same,"Plant response rating, Wheat",[6]; [16],0
same,"Plant response rating, Cupgrass, Woolly",[7]; [13],70
same,"Cupgrass, Woolly plant response rating (0 to 100 scale)",[7]; [14],85
same,"Plant response rating, Cupgrass, Woolly",[7]; [15],90
same,"Plant response rating, Cupgrass, Woolly",[7]; [16],95
same,"Plant response rating, Nutsedge, Yellow",[8]; [13],10
same,"Nutsedge, Yellow plant response rating (0 to 100 scale)",[8]; [14],20
same,"Plant response rating, Nutsedge, Yellow",[8]; [16],85
same,"Plant response rating, Flood, Barnyardgrass",[9],40
same,"Plant response rating, Barnyardgrass",[9]; [17],0
same,"Plant response rating, Barnyardgrass",[9]; [18],15
same,Barnyardgrass plant response rating,[9],0
same,"Plant response rating, Flood, Ducksalad",[10],50
same,"Plant response rating, Ducksalad",[10]; [17],30
same,"Plant response rating, Ducksalad",[10]; [18],40
same,Ducksalad plant response rating,[10],20
same,"Plant response rating, Flood, Rice",[11],30
same,"Plant response rating, Rice",[11]; [17],0
same,"Plant response rating, Rice",[11]; [18],0
same,Rice plant response rating,[11],0
same,"Plant response rating, Flood, Sedge, Umbrella",[12],50
same,"Plant response rating, Sedge, Umbrella",[12]; [17],30
same,"Plant response rating, Sedge, Umbrella",[12]; [18],40
same,"Sedge, Umbrella plant response rating",[12],0
